In US20230085307A1, “PYRIDAZINONE COMPOUND AND HERBICIDE” (NISSAN CHEMICAL CORPORATION, priority 2019, published 2023):

How the values were obtained:
wild oat [1] = test: Test Example 4: herbicidal effect by soil treatment (Table 19, symbol I); format: in vivo, wild oat (Avena fatua); conditions: amount of applied herbicide 320 g/ha
Method in brief: (§1)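 Soil-surface application: an emulsion agent diluted with water to the predetermined dose is sprayed uniformly over seeds lying under roughly 1.5 cm of sterilized diluvial soil. Boxes stay in a greenhouse at 25° C. to 30° C. Three weeks later, each species is graded on previously defined criteria.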

barnyard grass [2] = test: Test Example 5: herbicidal effect by foliage application, plastic box (Table 20, symbol H); format: in vivo, barnyard grass (Echinochloa crus-galli); conditions: 320 g/ha, foliage application after 14-day growth, evaluated three weeks after application
Method in brief: (§2)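 Sow seeds spot-wise in sterilized diluvial soil; cover with ~1.5 cm soil. Grow 14 days in greenhouse, 25° C. to 30° C. Spray foliage with emulsion diluted to predetermined amount. Rate effect after 3 weeks.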

chickweed = test: Test Example 5: herbicidal effect by foliage application, plastic box (Table 20, symbol P); format: in vivo, common chickweed (Stellaria media); conditions: 320 g/ha, foliage application after 14-day growth, evaluated three weeks after application
Method in brief: as §2

barnyard grass [3] = test: Test Example 4: herbicidal effect by soil treatment (Table 19, symbol H); format: in vivo, barnyard grass (Echinochloa crus-galli); conditions: amount of applied herbicide 320 g/ha
Method in brief: as §1

southern crabgrass = test: Test Example 4: herbicidal effect by soil treatment (Table 19, symbol F); format: in vivo, southern crabgrass (Digitaria ciliaris); conditions: amount of applied herbicide 320 g/ha
Method in brief: as §1

redroot pigweed [4] = test: Test Example 5: herbicidal effect by foliage application, plastic box (Table 20, symbol N); format: in vivo, redroot pigweed (Amaranthus retroflexus); conditions: 320 g/ha, foliage application after 14-day growth, evaluated three weeks after application
Method in brief: as §2

Japanese bulrush = test: Test Example 1: herbicidal activity, application before weed generation under submerged conditions (Table 16, symbol B); format: in vivo, Japanese bulrush (Schoenoplectus juncoides); conditions: amount of applied herbicide 320 g/ha
Method in brief: (§3)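 Submerged Wagner pots (alluvial soil, 4 cm water) sown with weed seeds and planted with 2.5-leaf rice seedlings; emulsifiable concentrate diluted in water applied to water surface on sowing day. Held in greenhouse at 25-30 °C; injury scored 0-5 by herbicidal rate after three weeks.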

Chinese sprangletop = test: Test Example 3: herbicidal effect by foliage application, Wagner pot (Table 18, symbol D); format: in vivo, chinese sprangletop (Leptochloa chinensis); conditions: 320 g/ha
Method in brief: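 Plants were sown in alluvial soil held under 0.1–0.5 cm standing water and grown 14 days in a greenhouse at 25–30 °C. An emulsifiable formulation, water-diluted to the set dose, was then sprayed onto the foliage, and effects were scored three weeks later using previously defined criteria.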

lambsquarters = test: Test Example 4: herbicidal effect by soil treatment (Table 19, symbol O); format: in vivo, lambsquarters (Chenopodium album); conditions: amount of applied herbicide 320 g/ha
Method in brief: as §1

blackgrass [5] = test: Test Example 5: herbicidal effect by foliage application, plastic box (Table 20, symbol J); format: in vivo, blackgrass (Alopecurus myosuroides); conditions: 320 g/ha, foliage application after 14-day growth, evaluated three weeks after application
Method in brief: as §2

wild oat [6] = test: Test Example 5: herbicidal effect by foliage application, plastic box (Table 20, symbol I); format: in vivo, wild oat (Avena fatua); conditions: 320 g/ha, foliage application after 14-day growth, evaluated three weeks after application
Method in brief: as §2

velvetleaf [7] = test: Test Example 4: herbicidal effect by soil treatment (Table 19, symbol M); format: in vivo, velvetleaf (Abutilon theophrasti); conditions: amount of applied herbicide 320 g/ha
Method in brief: as §1

blackgrass [8] = test: Test Example 4: herbicidal effect by soil treatment (Table 19, symbol J); format: in vivo, blackgrass (Alopecurus myosuroides); conditions: amount of applied herbicide 320 g/ha
Method in brief: as §1

velvetleaf [9] = test: Test Example 5: herbicidal effect by foliage application, plastic box (Table 20, symbol M); format: in vivo, velvetleaf (Abutilon theophrasti); conditions: 320 g/ha, foliage application after 14-day growth, evaluated three weeks after application
Method in brief: as §2

oval-leafed pondweed = test: Test Example 1: herbicidal activity, application before weed generation under submerged conditions (Table 16, symbol C); format: in vivo, oval-leafed pondweed (Monochoria vaginalis); conditions: amount of applied herbicide 320 g/ha
Method in brief: as §3

redroot pigweed [10] = test: Test Example 4: herbicidal effect by soil treatment (Table 19, symbol N); format: in vivo, redroot pigweed (Amaranthus retroflexus); conditions: amount of applied herbicide 320 g/ha
Method in brief: as §1

Row | SMILES | Herbicidal effect by soil treatment, I: wild oat (wild oat [1]) | herbicidal effect on H: barnyard grass (evaluation grade 0-5) (barnyard grass [2]) | herbicidal effect on P: chickweed (evaluation grade 0-5) (chickweed) | Herbicidal effect by soil treatment, H: barnyard grass (barnyard grass [3]) | Herbicidal effect by soil treatment, F: southern crabgrass (southern crabgrass) | herbicidal effect on N: redroot pigweed (evaluation grade 0-5) (redroot pigweed [4]) | Herbicidal effect, B: Japanese bulrush (Japanese bulrush) | herbicidal effect on Chinese sprangletop (D) (Chinese sprangletop) | Herbicidal effect by soil treatment, O: lambsquarters (lambsquarters) | herbicidal effect on J: blackgrass (evaluation grade 0-5) (blackgrass [5]) | herbicidal effect on I: wild oat (evaluation grade 0-5) (wild oat [6]) | Herbicidal effect by soil treatment, M: velvetleaf (velvetleaf [7]) | Herbicidal effect by soil treatment, J: blackgrass (blackgrass [8]) | herbicidal effect on M: velvetleaf (evaluation grade 0-5) (velvetleaf [9]) | Herbicidal effect, C: oval-leafed pondweed (oval-leafed pondweed) | Herbicidal effect by soil treatment, N: redroot pigweed (redroot pigweed [10])
1 | C=C(C)C(=O)Oc1c(C)nn(C)c(=O)c1-c1c(-c2ccccc2OC)sc2cc(OC)ccc12 [3-155] | 0 (Herbicidal rate of 5% or less (almost no effect)) | 5 (Herbicidal rate of 90% or more (almost completely withered)) | 5 (Herbicidal rate of 90% or more (almost completely withered)) | 2 (Herbicidal rate of 20% or more and less than 40%) | 0 (Herbicidal rate of 5% or less (almost no effect)) | 5 (Herbicidal rate of 90% or more (almost completely withered)) | 5 (Herbicidal rate of 90% or more (almost completely withered)) | 4 (Herbicidal rate of 70% or more and less than 90%) | 0 (Herbicidal rate of 5% or less (almost no effect)) | 5 (Herbicidal rate of 90% or more (almost completely withered)) | 3 (Herbicidal rate of 40% or more and less than 70%) | 0 (Herbicidal rate of 5% or less (almost no effect)) | 4 (Herbicidal rate of 70% or more and less than 90%) | 5 (Herbicidal rate of 90% or more (almost completely withered)) | 5 (Herbicidal rate of 90% or more (almost completely withered)) | 4 (Herbicidal rate of 70% or more and less than 90%)
2 | COc1ccc2c(-c3c(OC(=O)c4ccccc4OC)c(C)nn(C)c3=O)c(-c3ccccc3OC)sc2c1 [3-158] | 0 (Herbicidal rate of 5% or less (almost no effect)) | 5 (Herbicidal rate of 90% or more (almost completely withered)) | 5 (Herbicidal rate of 90% or more (almost completely withered)) | 0 (Herbicidal rate of 5% or less (almost no effect)) | 0 (Herbicidal rate of 5% or less (almost no effect)) | 5 (Herbicidal rate of 90% or more (almost completely withered)) | 5 (Herbicidal rate of 90% or more (almost completely withered)) | 3 (Herbicidal rate of 40% or more and less than 70%) | 0 (Herbicidal rate of 5% or less (almost no effect)) | 5 (Herbicidal rate of 90% or more (almost completely withered)) | 3 (Herbicidal rate of 40% or more and less than 70%) | 0 (Herbicidal rate of 5% or less (almost no effect)) | 0 (Herbicidal rate of 5% or less (almost no effect)) | 5 (Herbicidal rate of 90% or more (almost completely withered)) | 5 (Herbicidal rate of 90% or more (almost completely withered)) | 2 (Herbicidal rate of 20% or more and less than 40%)
